{
  "source": "patent US20220370545A1",
  "about": "“INTEGRIN RECEPTOR ALPHA V BETA 3 AND ITS LIGAND INVOLVED IN CHRONIC ITCH” (North Carolina State University, priority 2019, published 2022)",
  "molecules": {"B1": {"name": "periostin: fasciclin extracellular matrix protein, endogenous ligand of integrin αvβ3; mouse recombinant used (protein)", "chain": "NSYYDKVLAHSRIRGRDQGPNVCALQQILGTKKKYFSSCKNWYQGAICGKKTTVLYECCPGYMRMEGMKGCPAVMPIDHVYGTLGIVGATTTQHYSDVSKLREEIEGKGSYTYFAPSNEAWENLDSDIRRGLENNVNVELLNALHSHMVNKRMLTKDLKHGMVIPSMYNNLGLFINHYPNGVVTVNCARVIHGNQIATNGVVHVIDRVLTQIGTSIQDFLEAEDDLSSFRAAAITSDLLESLGRDGHFTLFAPTNEAFEKLPRGVLERIMGDKVASEALMKYHILNTLQCSEAITGGAVFETMEGNTIEIGCEGDSISINGIKMVNKKDIVTKNGVIHLIDEVLIPDSAKQVIELAGKQQTTFTDLVAQLGLASSLKPDGEYTLLAPVNNAFSDDTLSMDQRLLKLILQNHILKVKVGLSDLYNGQILETIGGKQLRVFVYRTAICIENSCMVRGSKQGRNGAIHIFREIIQPAEKSLHDKLRQDKRFSIFLSLLEAADLKDLLTQPGDWTLFAPTNDAFKGMTSEERELLIGDKNALQNIILYHLTPGVYIGKGFEPGVTNILKTTQGSKIYLKGVNETLLVNELKSKESDIMTTNGVIHVVDKLLYPADIPVGNDQLLELLNKLIKYIQIKFVRGSTFKEIPMTVYRPAMTKIQIEGDPDFRLIKEGETVTEVIHGEPVIKKYTKIIDGVPVEITEKQTREERIITGPEIKYTRISTGGGETGETLQKFLQKEVSKVTKFIEGGDGHLFEDEEIKRLLQGDTPAKKIPANKRVQGPRRRSREGRSQ"}},
  "key": {"[1]": {"target": "T1, TRPV1 receptor (Mus musculus, UniProt Q704Y3)", "T1 construct": "endogenous in cells; host or cells: primary mouse dorsal root ganglion neurons", "T1 sequence (Q704Y3 whole entry, the tested form may be a part)": "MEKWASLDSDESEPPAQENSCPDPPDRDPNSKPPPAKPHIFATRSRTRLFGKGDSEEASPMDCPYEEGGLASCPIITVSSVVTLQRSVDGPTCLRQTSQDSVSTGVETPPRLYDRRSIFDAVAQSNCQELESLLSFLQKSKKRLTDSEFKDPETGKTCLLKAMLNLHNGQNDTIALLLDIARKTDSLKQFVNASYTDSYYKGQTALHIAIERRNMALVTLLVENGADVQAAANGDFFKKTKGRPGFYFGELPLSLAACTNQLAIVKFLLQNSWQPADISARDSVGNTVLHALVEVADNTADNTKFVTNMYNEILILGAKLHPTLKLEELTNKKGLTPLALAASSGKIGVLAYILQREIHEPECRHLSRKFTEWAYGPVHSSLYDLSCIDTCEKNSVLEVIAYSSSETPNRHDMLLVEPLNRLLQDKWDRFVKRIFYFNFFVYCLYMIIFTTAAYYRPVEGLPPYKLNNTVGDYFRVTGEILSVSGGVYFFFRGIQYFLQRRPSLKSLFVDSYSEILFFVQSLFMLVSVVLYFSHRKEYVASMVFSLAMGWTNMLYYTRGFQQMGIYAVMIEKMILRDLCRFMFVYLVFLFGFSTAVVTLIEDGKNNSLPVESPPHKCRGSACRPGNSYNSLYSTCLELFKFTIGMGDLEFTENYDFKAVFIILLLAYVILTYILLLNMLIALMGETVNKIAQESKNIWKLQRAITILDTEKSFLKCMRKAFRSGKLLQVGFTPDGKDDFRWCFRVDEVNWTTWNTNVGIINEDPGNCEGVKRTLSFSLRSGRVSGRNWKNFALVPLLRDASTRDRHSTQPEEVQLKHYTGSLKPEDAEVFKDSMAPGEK", "assay": "Capsaicin-induced calcium response in DRG neurons (specificity control)", "assay_type": "cell-based", "conditions": "perfusion with 100 nM cilengitide", "protocol": "Before imaging, cells were incubated in 350 μL of complete media containing 1 μM Fura-2 AM (Enzo Life Sciences, Farmingdale, New York, United States of America) for 30 min at 37° C. with 5% CO2. During imaging, the cells were perfused with a buffer containing the following: 135 mM sodium chloride, 3.2 mM potassium chloride, 2.5 mM magnesium chloride, 2.8 mM calcium chloride, 667 μM monobasic sodium phosphate, 14.2 mM sodium bicarbonate, and 10.9 mM D-glucose (all from VWR International, Radnor, Pennsylvania, United States of America) with a pH between 7.00 and 7.40. The buffer and the holding plate were kept at 37° C. while imaging. Imaging data was collected on a TE200 inverted microscope using NIS Elements software (Nikon, Melville, New York, United States of America). Cells were exposed to 340 nm and 380 nm wavelengths for 100 ms and the A340/A380 ratio was calculated. Traces were analyzed using Excel and responses greater than 10% of the baseline were counted. Each data point in the scatter plots represented one coverslip.\nCalcium Imaging: Calcium imaging will be performed on the DRG neurons as previously described (Pitake et al., 2018). Briefly, DRG neurons will be incubated for longer than 30 min in DMEM containing 1 μM of a fluorescent indicator Fura-2 AM (Enzo Life Sciences, Inc., Farmingdale, N.Y., United States of America). The neurons will be perfused in a standard bath solution containing 140 mM NaCl, 5 mM KCl, 2 mM MgCl2, 2 mM CaCl2, 10 mM Hepes and 10 mM D-glucose at pH 7.4 adjusted with NaOH. A calcium-free bath solution will be prepared by omitting 2 mM CaCl2 from the standard bath solution […] adding 5 mM EGTA. Fura-2 fluorescence excited at 340 and 380 nm and emission will be monitored at 510 nm with a digital CCD camera (Andor Clara DR-4152, Andor Technology Ltd, Belfast, United Kingdom). Data will be obtained by every 100 ms using an imaging software (NIS-Elements AR 4.13.04, Nikon Corporation, Tokyo, Japan) and analyzed by Microsoft Excel (Microsoft Corporation, Redmond, Wash., United States of America). Values of calcium responses will be normalized by dividing measured values (F) with average values of initial 5 frames (F0) of each cell and described as F/F0. In this study, changes in each response to an application with F/F0>0.1 will be regarded as positive. Cells not responding to 100 mM KCl, which is applied at the end of each experiment, will be regarded as non-neuronal cells and excluded from analysis.\nAdditional inhibitors were studied using the calcium imaging method described in Example 3. Briefly, the Fura2-AM calcium imaging method was performed on live dorsal root ganglia (DRG) neurons (ex vivo). The DRG neurons are pre-incubated with the inhibitors P11 (Catalog #4744, Tocris Bioscience, Bristol, United Kingdom) and LM609 (Catalog #MAB1876, Millipore Sigma, Burlington, Mass., United States of America) or vehicle for 10 minutes and further stimulated with periostin or capsaicin in the presence of inhibitors. For Echistatin (Catalog #3202/100U, R&D Biosystems, Minneapolis, Minn., United States of America), MK-0429, and SB273005 (Catalog #S75-40, Selleck Chemicals Llc, Houston, Tex., United States of America), the DRG neurons were perfused with a normal Locke buffer vehicle or modified Locke buffer as described below. The values were normalized with KCl ([…]) to identify neuronal responses in all the calcium response data below."}, "[2]": {"system": "BMMC mast cells", "assay": "Calcium imaging on mast cells", "assay_type": "cell-based, mouse", "conditions": "mast cells stimulated with periostin alone", "protocol": "Changes in cytosolic Ca^2+ were assayed using ratiometric Fura-2 AM measurements as described (Cruse et al., 2013). Fluorescence was measured at two excitation wavelengths (340 and 380 nm) and an emission wavelength of 510 nm using a BioTek Neo2 multimode plate reader (BioTek, Winooski, Vt., United States of America). The ratio of fluorescence readings was calculated following subtraction of background fluorescence of cells not loaded with Fura-2 AM."}},
  "data": [
    {"molecule": "CC(C)[C@H]1C(=O)N[C@@H](CCCN=C(N)N)C(=O)NCC(=O)N[C@@H](CC(=O)O)C(=O)N[C@H](Cc2ccccc2)C(=O)N1C", "note": "[cilengitide, cyclo RGDf-n(Me)V]", "values": [
      {"measurement": "capsaicin-induced calcium response", "setting": "[1]", "value": "did not reduce"}
    ]},
    {"molecule": "B1", "values": [
      {"measurement": "calcium release in mast cells", "setting": "[2]", "value": "no periostin-dependent change in calcium release"}
    ]}
  ]
}
